According to CN110483432A, “一类丙烯酸类化合物及其制备方法、药物组合物和用途” (Shanghai Institute of Materia Medica of CAS, priority 2018, dated 2019):

Tests used:
[1] = molecular target: CREB/CRTC2 (Homo sapiens, UniProt P16220+Q53ET0); assay: Mammalian two-hybrid (CREB-GAL4-BD / CRTC2-VP16-AD, Gal4-luciferase reporter) test of inhibition of CREB/CRTC2 protein interaction in HEK293 cells; type: cell-based; conditions: 50 μM final concentration; HEK293 two-hybrid activation model (Forsklin); overnight; read-out: relative reporter gene activity (vs solvent control DMSO, set to 100%)
Chain of CREB/CRTC2 (P16220 whole entry, the tested form may be a part): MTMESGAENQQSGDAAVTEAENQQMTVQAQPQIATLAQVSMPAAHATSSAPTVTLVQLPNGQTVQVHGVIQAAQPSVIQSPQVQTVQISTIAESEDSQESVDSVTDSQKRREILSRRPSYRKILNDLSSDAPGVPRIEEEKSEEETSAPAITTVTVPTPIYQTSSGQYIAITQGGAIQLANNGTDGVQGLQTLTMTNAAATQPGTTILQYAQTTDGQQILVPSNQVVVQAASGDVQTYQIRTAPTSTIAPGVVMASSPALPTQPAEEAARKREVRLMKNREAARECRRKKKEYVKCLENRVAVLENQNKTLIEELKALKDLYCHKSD
Chain of CREB/CRTC2 (Q53ET0 whole entry, the tested form may be a part): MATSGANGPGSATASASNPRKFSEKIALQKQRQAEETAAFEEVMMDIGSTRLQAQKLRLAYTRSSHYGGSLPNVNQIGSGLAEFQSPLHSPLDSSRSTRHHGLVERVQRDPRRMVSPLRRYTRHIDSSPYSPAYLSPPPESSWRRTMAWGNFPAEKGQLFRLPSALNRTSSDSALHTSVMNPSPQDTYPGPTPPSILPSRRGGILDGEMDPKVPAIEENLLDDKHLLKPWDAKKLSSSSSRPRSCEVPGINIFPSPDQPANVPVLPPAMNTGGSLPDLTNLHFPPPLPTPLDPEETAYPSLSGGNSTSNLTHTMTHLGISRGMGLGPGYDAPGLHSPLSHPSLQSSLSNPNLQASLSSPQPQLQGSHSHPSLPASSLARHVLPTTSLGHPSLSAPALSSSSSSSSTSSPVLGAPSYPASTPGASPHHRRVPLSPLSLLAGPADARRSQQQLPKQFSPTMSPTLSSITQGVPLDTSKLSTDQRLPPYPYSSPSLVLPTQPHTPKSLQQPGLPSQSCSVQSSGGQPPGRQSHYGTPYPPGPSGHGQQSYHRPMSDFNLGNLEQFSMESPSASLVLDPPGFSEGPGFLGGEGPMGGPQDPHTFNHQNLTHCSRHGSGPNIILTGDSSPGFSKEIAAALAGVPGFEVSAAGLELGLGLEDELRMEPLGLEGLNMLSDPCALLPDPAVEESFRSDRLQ

[2] = test system: CREB phosphorylation (Ser133) (CREB的磷酸化(Ser133)); assay: Western blot of CREB phosphorylation (Ser133) in glucagon signalling pathway; type: cell-based, mouse; conditions: 20 μM, 1 h preincubation, glucagon 100 nM, 30 min, primary hepatocytes or liver tissue
[3] = Cytotoxicity test in HEK293 cells (CCK8); type: cell-based; conditions: human, overnight, HEK293, CCK8 OD450, read-out: cell viability

remaining activity at 50 µM [1]: < 30%
Compound: O=C(/C=C/c1cccc(-c2ccccc2)c1)N1C(=O)OC[C@@H]1c1ccccc1 [A57, (S,E)-3-(3-([1,1’-联苯基]-3-基)丙烯酰)-4-苯基噁唑烷-2-酮]
effect on glucagon-stimulated CREB phosphorylation level [2]: 没有显著的影响
viability at 50 µM [3]: ~100%
